Among the data in ChEMBL document CHEMBL3507680, “University of Dundee, Gates Library screen for HepG2 cell viability” are cytotoxicity values, retold here.

The data set is described as follows: Human HepG2 cell viability assay in 384 well format. As to conditions: HepG2 cells, read-out: Inhibition. Type of data set: toxicity, cell-based. On the set-up: dose 125 nL, time 70.5 hour; concentration not given beside the values.
As for `CCn1c(=O)n(CC)c2cc(S(N)(=O)=O)ccc21`, the cytotoxicity at 70.5 h was -2.33%.

For the compound `CC(C)(C)NC(=O)COc1ccc(CNCc2ccccn2)cc1`, the cytotoxicity at 70.5 h is 25.3%.

For `CC(C)(C)C(=O)N1CCC2(COCc3cnc(N4CCOCC4)nc32)C1` (stereo not drawn), the cytotoxicity at 70.5 h was -19.1%.

`O=c1cc(CN2CCCC2)nc2n1CCCN(Cc1ccsc1)C2`: the cytotoxicity at 70.5 h is -17.6%.

Regarding `Cn1cc(CN2CC[C@H]3OCC[C@@H](C(=O)N4CCCCO4)[C@@H]3C2)cn1`, the cytotoxicity at 70.5 h was -15.8%.

In the case of `CCc1ncnc2c1CCN(C(=O)Cc1ccccn1)CC2`, the cytotoxicity at 70.5 h is -19.9%.

For the compound `O=C1COC2(CCN(Cc3ccccn3)CC2)CN1CC1CC1`, the cytotoxicity at 70.5 h is -0.792%.

Consider `Cn1cnc2c1C(COCC1CC1)CN(Cc1ccsc1)C2` (stereo not drawn), for which the cytotoxicity at 70.5 h worked out at 5.05%.

Turning to `O=C(Cc1ccsc1)NCC1OCCc2cn(CC3CC3)nc21` (stereo not drawn), the cytotoxicity at 70.5 h is -2.21%.

For the compound `Cn1cc(C[C@H]2[C@@H](O)CCN2C(=O)C2CC=CC2)cn1`, the cytotoxicity at 70.5 h came out at 7.47%.

For `CNC(=O)[C@H]1C[C@@H]2CN(C(=O)Nc3ccc(F)cc3)C[C@H]1O2`, the cytotoxicity at 70.5 h is -0.584%.

Consider `O=C(Nc1ccc(F)cc1)N1C[C@H]2C[C@H](C(=O)N3CCOCC3)[C@@H](C1)O2`, for which the cytotoxicity at 70.5 h was -1.46%.

`Cc1nc([C@@H]2C[C@@H]3CCN(C(=O)c4ccnnc4)C[C@H]3O2)sc1C`: the cytotoxicity at 70.5 h is 5.38%.

Turning to `Cn1cc2c(n1)C(CNC(=O)Cc1ccsc1)OCC2` (stereo not drawn), the cytotoxicity at 70.5 h is -6.77%.

For `CNC(=O)[C@@]12CCCN(c3ncccn3)[C@@H]1CN(C(=O)NC(C)C)C2`, the cytotoxicity at 70.5 h was 34.2%.

As to `O=C1NCC[C@]12CN(Cc1ccoc1)C[C@H]2c1ccccc1`, the cytotoxicity at 70.5 h is 16.2%.

`CNC(=O)C1Cn2ccnc2C2(CCN(CCF)CC2)O1` (stereo not drawn): the cytotoxicity at 70.5 h is -13.9%.

For the compound `CC(C)CN1CCCC2(CCN(C(=O)c3cnccn3)C2)C1` (stereo not drawn), the cytotoxicity at 70.5 h is -14.6%.

In the case of `COCC1CC2(CCN(C(=O)c3ccc(OC)c(Cl)c3)CC2)CO1` (stereo not drawn), the cytotoxicity at 70.5 h is -8.41%.

Take `O=C(c1ccsc1)N1C[C@@H]2C[C@@H](c3nnc(C4CC4)o3)O[C@@H]2C1`: the cytotoxicity at 70.5 h is -8.35%.

With `O=C(CCc1ccccc1)N1CCn2cc(Cn3cncn3)nc2C1`, the cytotoxicity at 70.5 h is -11.8%.

In the case of `CO[C@@H]1CC[C@H]2[C@H]1OCCN2C(=O)C1=CCCC1`, the cytotoxicity at 70.5 h is -20.1%.

As for `COc1ccc2c(c1)C1(CCN(Cc3ccncc3)CC1)N(C)CC2`, the cytotoxicity at 70.5 h was -10.8%.

Regarding `COCC1CC2(CCN(C(=O)c3cccc(C)c3)CC2)CO1` (stereo not drawn), the cytotoxicity at 70.5 h is -12.6%.

Consider `CCOc1ccc(S(=O)(=O)N(C)Cc2cnn(CC)c2)cc1`, for which the cytotoxicity at 70.5 h was -2.15%.

As for `Cc1c(Cl)c(C(=O)NCc2ccc(F)cc2)nn1C`, the cytotoxicity at 70.5 h is -5.73%.

`O=C(CCn1nc(C(F)(F)F)c(Cl)c1C1CC1)NN1CCOCC1`: the cytotoxicity at 70.5 h was -1.82%.

`Cc1c(Cl)c(C(F)(F)F)nn1C(C)C(=O)NN1CCN(C)CC1` (stereo not drawn): the cytotoxicity at 70.5 h was -3.23%.

On to `CCC(=O)c1ccccc1NN1c2ccccc2C(=O)C1(C)OC` (stereo not drawn), for which the cytotoxicity at 70.5 h is 4.64%.

For the compound `CN1CCCc2c1nc1c(c2N)CCC1`, the cytotoxicity at 70.5 h was -7.63%.

Regarding `CCn1c(=O)c2cc(S(N)(=O)=O)ccc2n(CC)c1=O`, the cytotoxicity at 70.5 h was -2.07%.

For `Fc1cccc(Cl)c1CNCc1ccccn1`, the cytotoxicity at 70.5 h was -12.6%.

On to `O=C(COCC(=O)N1CCCCCC1)NCc1cccc(Br)c1`, for which the cytotoxicity at 70.5 h was found to be 0.154%.

In the case of `C/N=C1/c2cc3cc(OC)ccc3n2CCN1C`, the cytotoxicity at 70.5 h is -0.795%.

Regarding `O=c1c2c(ncn1CCCO)nc1n2CCC1`, the cytotoxicity at 70.5 h was -1.36%.

Take `O=C1CC(N2CCN(c3ccccc3O)CC2)C(=O)N1Cc1cccs1` (stereo not drawn): the cytotoxicity at 70.5 h was -12.2%.

As to `O=C(COCC(=O)N(c1ccccc1)c1ccccc1)N1CCCC1`, the cytotoxicity at 70.5 h was -3.7%.

On to `Cc1c(Br)cnn1C(C)C(=O)Nc1nncs1` (stereo not drawn), for which the cytotoxicity at 70.5 h was -14.2%.

As to `CSc1ncn(-c2nc(N(C)C)nc(N(C)C)n2)n1`, the cytotoxicity at 70.5 h is 36.4%.

Turning to `CCc1ccc(NC(=O)Nc2c(O)oc3ccccc3c2=O)cc1`, the cytotoxicity at 70.5 h is -9.4%.

With `CC(C)CNC(=O)CN(Cc1ccc(F)cc1)S(C)(=O)=O`, the cytotoxicity at 70.5 h is -5.67%.

For the compound `O=C(NCC1CC1)[C@@H]1CCO[C@@H]2CCN(Cc3ccc(F)cc3)C[C@H]21`, the cytotoxicity at 70.5 h is -4.34%.

As for `O=S(=O)(C1CC1)N1C[C@H]2CCC[C@@]2(COc2ccccn2)C1`, the cytotoxicity at 70.5 h is -19.4%.

For `CC1c2ncc(COc3cccnc3)n2CCN1C(=O)Cc1ccco1` (stereo not drawn), the cytotoxicity at 70.5 h is -13.8%.

Take `COCCN1CC[C@H](O)[C@@H]1Cc1ccccc1`: the cytotoxicity at 70.5 h was -16.7%.

With `Cn1cc(N2CC3(CCN(CC4CCOCC4)CC3)OCC2=O)cn1`, the cytotoxicity at 70.5 h is -17.2%.

For the compound `CC1c2ncc(COc3cccnc3)n2CCN1C(=O)C1=CCCC1` (stereo not drawn), the cytotoxicity at 70.5 h was -9.18%.

`O=C([C@H]1CCCO1)N1CCCC2(CCN(Cc3ccncc3)C2=O)C1` (stereo partly drawn): the cytotoxicity at 70.5 h was found to be 22.1%.

For the compound `CN(C)S(=O)(=O)N1C[C@H](Oc2cccnc2)[C@H]2OCCC[C@H]21`, the cytotoxicity at 70.5 h amounted to 31.1%.

With `CNC(=O)[C@@]12CCO[C@@H]1CCN(Cc1scnc1C)C2`, the cytotoxicity at 70.5 h worked out at 4.42%.

Regarding `Cn1ccnc1CN1CCC2(CC(=O)N(c3cccc(F)c3)C2)C1` (stereo not drawn), the cytotoxicity at 70.5 h is -4.42%.

Consider `COc1ccc(CN2CCn3cc(Cn4cccn4)nc3C2)cc1`, for which the cytotoxicity at 70.5 h is 3.13%.

Take `Cc1ccc(C(=O)N2CCn3cc(CN(C)Cc4ccco4)nc3C2)o1`: the cytotoxicity at 70.5 h came to 8.16%.

With `Cc1nc(CN2CCC3(CCN(c4ncc(F)cn4)C3)C2=O)cs1` (stereo not drawn), the cytotoxicity at 70.5 h amounted to 4.85%.

On to `CN(C)C(=O)N1C[C@H](Oc2ccccn2)[C@H]2OCCC[C@H]21`, for which the cytotoxicity at 70.5 h was -7.83%.

With `Cc1cc(CN2CC[C@H]3OCC[C@@]3(C(=O)NC(C)C)C2)no1`, the cytotoxicity at 70.5 h amounted to 3.85%.

`CNC(=O)[C@H]1C[C@H]2OCC[C@H]2N(Cc2cccc3ccccc23)C1`: the cytotoxicity at 70.5 h was -6.96%.

With `Cc1ccoc1C(=O)N1C[C@H]2CCC[C@@]2(COCc2ccncc2)C1`, the cytotoxicity at 70.5 h worked out at 5.44%.

Turning to `c1cnn(Cc2cn3c(n2)CN(Cc2nccs2)CC3)c1`, the cytotoxicity at 70.5 h was -3.15%.

With `Cn1ccnc1CN1CCC2(CC1)CC(NC(=O)c1ccccn1)CO2` (stereo not drawn), the cytotoxicity at 70.5 h turned out to be 8.41%.

For `Cn1cccc1CN1CCC2(CCCN(C(=O)c3cnccn3)C2)C1` (stereo not drawn), the cytotoxicity at 70.5 h was found to be 17%.

Consider `Cc1ccc(C(=O)N2CCO[C@H]3[C@@H](OCc4ccccn4)CC[C@@H]32)o1`, for which the cytotoxicity at 70.5 h is -19.5%.

In the case of `COCC1CN(C(=O)COc2ccccc2)Cc2cn(C)nc21` (stereo not drawn), the cytotoxicity at 70.5 h is -18%.

On to `O=S(=O)(C1CC1)N1CC[C@]2(C[C@@H](Oc3ccccn3)CO2)C1`, for which the cytotoxicity at 70.5 h is -18.9%.

As for `COc1ncccc1CN1Cc2nnn(C)c2C(COCC2CC2)C1` (stereo not drawn), the cytotoxicity at 70.5 h was 1.61%.

In the case of `Fc1cccc(N2CCCC3(C2)CN(c2ncccn2)CCO3)c1` (stereo not drawn), the cytotoxicity at 70.5 h is -0.813%.

For the compound `COCCN1C[C@@H]2CN(Cc3cccc(F)c3)CCC[C@]2(C(=O)O)C1`, the cytotoxicity at 70.5 h stood at 20.7%.

Regarding `Cc1ccc(N2CC3(COCCN(Cc4cccnc4)C3)OCC2=O)s1` (stereo not drawn), the cytotoxicity at 70.5 h was 26.6%.
